Source: US20140227289A1, “COMPOUNDS AND METHODS FOR TREATING INSULIN RESISTANCE SYNDROME” (priority 2011, published 2014)
Values belong to the compound of their own block, whether it stands above or below them.

How the values were obtained:
human AGS cells = assay: Quantitative RT-PCR of FOXO target mRNAs in human AGS cells under ER stress; format: cell-based
Procedure: (§1) The expression of certain mRNAs was measured by quantitative reverse transcription polymerase chain reaction (RT-PCR). In this example, the mRNA was extracted and purified using RNeasy Mini Kit (Qiagen, Netherlands) with DNase to eliminate genomic DNA contamination. Reverse transcription to synthesize the first strand utilized oligo-dT primers. The mRNAs measured are known FOXO targets: […] (CHOP), Bim (anti- or pro-apoptotic regulators), Growth Arrest and DNA Damage gene (GADD45) and PERK. Bip2, which is not a FOXO target, was also measured as a control. Results were normalized to Kinesin mRNA.
Dimethyl sulfoxide (DMSO)-treated human AGS cells were used as a control, denoted as “ctrl”. The human AGS cells were grown in Roswell Park Memorial Institute (RPMI) media supplemented with 10% FBS, and treated with 10 μg/ml tunicamycin dissolved in DMSO at 1 mg/ml for 4 hours to induce ER stress. The tunicamycin treated cells are denoted as “TM”.
Quantitative RT-PCR was performed to show the relative level of the indicated human mRNA targets. The results are shown in FIG. 5A where normalized levels of mRNA transcripts were measured for the “TM” cells compared to the “ctrl” cells. […] It can be concluded that ER stress induces the expression of Bip2, CHOP, Bim and GADD45.
(§2) The tunicamycin treated (“TM”) cells were further treated with siRNA treatment to deplete PERK from human AGS cells. The siRNA sequence used was 5′-[…]-3′ (SEQ ID NO: 1). The siRNA was transfected into cells using HiPerFect reagent (Qiagen, Netherlands) for 3 days before tunicamycin treatment. The PERK-depleted cells are denoted as “PERK RNAi+TM”.
(§3) Quantitative RT-PCR was performed to show the relative level of the indicated human mRNA targets. The results are shown in FIG. 5B where normalized levels of the target mRNA transcripts were measured for the “TM” cells compared with the “PERK RNAi+TM” cells. The levels of these target mRNAs in PERK-depleted (“PERK RNAi+TM”) cells were normalized to the levels of tunicamycin-treated (“TM”) control cells.

PERK = assay: siRNA depletion of PERK in human AGS cells, quantitative RT-PCR; format: cell-based; conditions: siRNA transfected 3 days before tunicamycin treatment
Procedure: as §1, §2, §3

human Foxo1 = assay: Foxo1 luciferase reporter assay in human H1299 cells; format: cell-based; conditions: 1 μM
Procedure: Human H1299 cells were transfected to express human Foxo1 (“FOXO1”) and co-transfected to express PERK (“FOXO1+PERK”). The transfected H1299 cells were treated with 1 μM PERK kinase inhibitor (“FOXO1+inhibitor” and “FOXO1+PERK+inhibitor”). The PERK kinase inhibitor has the chemical formula: 5-Bromo-N4-2-pyridinyl-N2-[3-(1,2,3,6-tetrahydro-4-pyridinyl)-1H-indol-5-yl]-2,4-pyrimidinediamine. The activity of the Foxo1 luciferase reporter gene was then measured in terms of normalized IRS-luciferase levels.

MCF-7 cells = assay: Expression of endogenous Foxo1 targets in serum starved, PI3K inhibited MCF-7 cells; format: cell-based, human; conditions: serum starved+LY+PERK inhibition vs serum starved+LY
Procedure: To test the effects of PERK inhibition on endogenous Foxo1 targets, the cells were serum starved to remove growth factors and treated with the PI3K inhibitor LY294002 (50 μM) to further reduce AKT activity (“serum starved+LY”) for 4 hours. This treatment can be viewed as a model for extreme insulin resistance, in that it removes the capacity of the cell to respond insulin signaling by activating AKT. Control cells were grown in DMEM supplemented with 10% FBS (“control with serum”). The endogenous human FOXO targets are BIM gene (a pro-apoptotic member of the BCL-2 protein family), Cyclin G2 gene (encoding a cyclin that blocks cell cycle entry), insulin receptor substrate 2 gene (IRS-2; encoding a cytoplasmic signaling molecule that mediates effects of insulin), p27KIP1 gene (encoding a cell cycle regulatory protein), pyruvate dehydrogenase lipoamide kinase isozyme 4 gene (PDK4; encoding a protein that inhibits the pyruvate dehydrogenase complex), phosphoenolpyruvate carboxykinase 2 (PCK2; encoding a mitochondrial enzyme), p21 gene (encoding a cyclin-dependent kinase inhibitor) and insulin receptor gene (INSR). The rp132 gene (a ribosomal protein gene) and the mActin gene (encoding a muscle-specific type actin) are not FOXO targets and were used as controls. […]

HEPG2 hepatocyte cells = assay: Expression of FOXO targets in serum starved, PI3K inhibited HEPG2 hepatocyte cells; format: cell-based, human; conditions: serum starved+LY+PERK inhibition vs serum starved+LY
Procedure: To test the effects of PERK inhibition on endogenous Foxo1 targets, the cells were serum starved to remove growth factors and treated with the PI3K inhibitor LY294002 (50 μM) to further reduce AKT activity (“serum starved+LY”) for 4 hours. This treatment can be viewed as a model for extreme insulin resistance, in that it removes the capacity of the cell to respond insulin signaling by activating AKT. Control cells were grown in DMEM supplemented with 10% FBS (“control with serum”). The endogenous human FOXO targets are BIM gene (a pro-apoptotic member of the BCL-2 protein family), Cyclin G2 gene (encoding a cyclin that blocks cell cycle entry), insulin receptor substrate 2 gene (IRS-2; encoding a cytoplasmic signaling molecule that mediates effects of insulin), p27KIP1 gene (encoding a cell cycle regulatory protein), pyruvate dehydrogenase lipoamide kinase isozyme 4 gene (PDK4; encoding a protein that inhibits the pyruvate dehydrogenase complex), phosphoenolpyruvate carboxykinase 2 (PCK2; encoding a mitochondrial enzyme), p21 gene (encoding a cyclin-dependent kinase inhibitor) and insulin receptor gene (INSR). The rp132 gene (a ribosomal protein gene) and the mActin gene (encoding a muscle-specific type actin) are not FOXO targets and were used as controls. […] Example 11A was repeated with HEPG2 hepatocyte cells instead.

HEPG2 liver cells = assay: Foxo1 target gene expression in palmitate treated (insulin resistant) HEPG2 liver cells; format: cell-based, human; conditions: palmitate treated cells further treated with PERK kinase inhibitor
Procedure: HEPG2 liver cells were treated with 0.75 mM of palmitate, a saturated fatty acid, for 17 hours to induce insulin resistance, and the effects of PERK inhibition were assessed by monitoring Foxo1 target gene expression. The Foxo1 target genes are pyruvate dehydrogenase lipoamide kinase isozyme 4 gene (PDK4; encoding a protein that inhibits the pyruvate dehydrogenase complex) and phosphoenolpyruvate carboxykinase 1 (PCK1; encoding […]).
The results are shown in FIG. 12A, where the data was normalized to Kinesin mRNA levels and to the level of the rp132 control mRNAs.
The palmitate treated cells were further treated by inhibiting PERK kinase inhibitor 5-Bromo-N4-2-pyridinyl-N2-[3-(1,2,3,6-tetrahydro-4-pyridinyl)-1H-indol-5-yl]-2,4-pyrimidinediamine.
The results are shown in FIG. 12B, where the data was normalized to Kinesin mRNA levels and to the level of the rp132 control mRNAs. It can be seen that PERK inhibition decreased the expression of the Foxo1 targets, PDK4 and PCK1.

human Foxo1 (human) = human Foxo1 (human) (UniProt Q12778); assay: cell-based or functional assay
Sequence of UniProt Q12778 (Q12778 whole entry): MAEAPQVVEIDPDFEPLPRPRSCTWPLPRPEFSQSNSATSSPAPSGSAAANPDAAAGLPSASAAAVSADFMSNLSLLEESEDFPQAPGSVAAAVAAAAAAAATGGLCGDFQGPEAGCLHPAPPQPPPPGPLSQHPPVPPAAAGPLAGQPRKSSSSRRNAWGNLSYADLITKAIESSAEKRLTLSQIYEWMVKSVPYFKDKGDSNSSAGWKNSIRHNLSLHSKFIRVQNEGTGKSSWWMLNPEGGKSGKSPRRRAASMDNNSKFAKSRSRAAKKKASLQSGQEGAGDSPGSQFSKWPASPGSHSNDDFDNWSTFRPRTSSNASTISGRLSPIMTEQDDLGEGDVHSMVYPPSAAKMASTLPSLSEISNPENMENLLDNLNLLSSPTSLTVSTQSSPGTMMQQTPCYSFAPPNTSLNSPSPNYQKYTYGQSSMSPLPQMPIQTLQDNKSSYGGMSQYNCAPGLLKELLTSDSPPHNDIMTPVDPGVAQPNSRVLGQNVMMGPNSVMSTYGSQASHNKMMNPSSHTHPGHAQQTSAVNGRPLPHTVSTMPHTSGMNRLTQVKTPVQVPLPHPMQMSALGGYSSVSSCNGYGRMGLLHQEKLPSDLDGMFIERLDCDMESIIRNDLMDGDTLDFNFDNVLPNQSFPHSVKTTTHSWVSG

FOXO-GFP = FOXO-GFP subcellular localization assay in Drosophila S2 cells; format: cell-based; conditions: 10 μg/ml of insulin for 30 min, serum free medium
Procedure: A FOXO-green fluorescent (GFP) fusion protein was expressed in Drosophila S2 cells by transient transfection. The Drosophila cells were grown in serum free medium and deprived of insulin. The transfected cells were treated with 10 μg/ml of insulin for 30 min and the subcellular localization of FOXO-GFP was scored by obtaining images of the FOXO-GFP expressing cells. The insulin treated cells were named sample (b). A control sample (a) was obtained by having no insulin treatment to the transfected cells. In sample (c), ER stress was induced by RNA interference (RNAi) to disrupt endoplasmic-reticulum-associated-protein degradation (ERAD) machinery. The disruption of ERAD machinery was done by treatment of dsRNA to deplete HMG-CoA reductase degradation protein 3 (Hrd3), thereby inducing ER stress. Thereafter, the cells were treated with insulin 4 days after the dsRNA treatment. In sample (d), ER stress was induced by dsRNA treatment to deplete Hrd3. PERK protein was also depleted using dsRNA treatment. Thereafter, the cells were treated with insulin 4 days after the dsRNA treatment.
The results are shown in FIG. 2, where N means predominantly nuclear, C means predominantly cytoplasmic and CN means both nuclear and cytoplasmic. […]

[1] = PERK RNAi+TM cells compared with TM cells

Compound: 5′-CAAACUGUAUAACGGUUUATT-3′ [PERK RNAi]
degree of induction of Foxo1 targets CHOP, Bim and GADD45 (human AGS cells; [1]): reducing the degree of induction
levels of Bip2 transcripts (not a FOXO target) (human AGS cells; [1]): comparable
decrease of PERK levels compared to TM cells (PERK): more than 80%

Compound: Brc1cnc(Nc2ccc3[nH]cc(C4=CCNCC4)c3c2)nc1Nc1ccccn1 [PERK kinase inhibitor, 5-Bromo-N4-2-pyridinyl-N2-[3-(1,2,3,6-tetrahydro-4-pyridinyl)-1H-indol-5-yl]-2,4-pyrimidinediamine]
level of Foxo1 activity with co-expressed PERK (normalized IRS-luciferase levels) (human Foxo1; FOXO1+PERK vs FOXO1+PERK+inhibitor): reduced the level of Foxo1 activity
activity of Foxo1 alone (normalized IRS-luciferase levels) (human Foxo1; FOXO1 vs FOXO1+inhibitor): did not affect
target genes expression (BIM, Cyclin G2, IRS-2, p27KIP1, PDK4) (MCF-7 cells): reducing the target genes expression
expression of rp132 and mActin (not FOXO target genes) (HEPG2 hepatocyte cells): did not reduce
target genes expression (p27, PDK, Cyclin G, PCK2, p21, INSR) (HEPG2 hepatocyte cells): reduced the target genes expression
expression of the Foxo1 targets PDK4 and PCK1 (HEPG2 liver cells): decreased
levels of rp123 and mActin (not Foxo1 targets) (HEPG2 liver cells): not substantially altered

normalized luciferase levels of the human Foxo1 luciferase reporter (human Foxo1 (human)): 2 fold
Compound: human protein kinase RNA-like endoplasmic reticulum kinase (PERK) protein (from UniProt Q9NZJ5 30-1116) (enzyme)

Compound: insulin
location of FOXO-GFP both nuclear and cytoplasmic (FOXO-GFP): about 30 % of cells
location of FOXO-GFP cytoplasmic (FOXO-GFP): about 70 % of cells

Compound: tunicamycin [TM, reference compound]
levels of Bip2, CHOP, Bim and GADD45 mRNA transcripts compared to ctrl cells (human AGS cells; 10 μg/ml tunicamycin for 4 hours, normalized to Kinesin mRNA): significantly higher
